Measured values from PubChem BioAssay AID1963960 (Molecular Pharmacology Branch, DTP, NCI, 2024).

Test system: MDA-MB-468 spheroids with HUVEC/MSC, viability
Test: Anticancer human tumor MDA-MB-468 cell line growth inhibition [PI3K];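 note: spheroids exposed to agents for seven days before readout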;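 for viability, T/C: 100% = DMSO vehicle control viability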
Conditions: for viability, T/C: stronger effect = lower value
How it was run: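 Multi-cell spheroids combine tumor cells with HUVEC and human MSCs, treated with targeted agents alone or with inavolisib, alpelisib, duvelisib or copanlisib. Concentrations fall in half-log steps from at or near clinical Cmax, or from 10 microM where Cmax is unknown; viability read-out.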

[1] = curve of first compound, second compound 0.0316 µM
[2] = curve of first compound, second compound 0.1 µM
[3] = curve of first compound, second compound 0.316 µM
[4] = curve of first compound, second compound 1 µM
[5] = second compound 0.0316 µM, first compound 0.0316 µM
[6] = second compound 0.0316 µM, first compound 0.1 µM
[7] = second compound 0.0316 µM, first compound 0.316 µM
[8] = second compound 0.0316 µM, first compound 1 µM
[9] = second compound 0.0316 µM, first compound 3.16 µM
[10] = second compound 0.0316 µM, first compound 10 µM
[11] = second compound 0.1 µM, first compound 0.0316 µM
[12] = second compound 0.1 µM, first compound 0.1 µM
[13] = second compound 0.1 µM, first compound 0.316 µM
[14] = second compound 0.1 µM, first compound 1 µM
[15] = second compound 0.1 µM, first compound 3.16 µM
[16] = second compound 0.1 µM, first compound 10 µM
[17] = second compound 0.316 µM, first compound 0.0316 µM
[18] = second compound 0.316 µM, first compound 0.1 µM
[19] = second compound 0.316 µM, first compound 0.316 µM
[20] = second compound 0.316 µM, first compound 1 µM
[21] = second compound 0.316 µM, first compound 3.16 µM
[22] = second compound 0.316 µM, first compound 10 µM
[23] = second compound 1 µM, first compound 0.0316 µM
[24] = second compound 1 µM, first compound 0.1 µM
[25] = second compound 1 µM, first compound 0.316 µM
[26] = second compound 1 µM, first compound 1 µM
[27] = second compound 1 µM, first compound 3.16 µM
[28] = second compound 1 µM, first compound 10 µM
[29] = curve of first compound, second compound 0.00316 µM
[30] = curve of first compound, second compound 0.01 µM
[31] = second compound 0.00316 µM, first compound 0.0316 µM
[32] = second compound 0.00316 µM, first compound 0.1 µM
[33] = second compound 0.01 µM, first compound 0.0316 µM
[34] = second compound 0.01 µM, first compound 0.1 µM
[35] = second compound 0.00316 µM, first compound 0.316 µM
[36] = second compound 0.00316 µM, first compound 1 µM
[37] = second compound 0.00316 µM, first compound 3.16 µM
[38] = second compound 0.00316 µM, first compound 10 µM
[39] = second compound 0.01 µM, first compound 0.316 µM
[40] = second compound 0.01 µM, first compound 1 µM
[41] = second compound 0.01 µM, first compound 3.16 µM
[42] = second compound 0.01 µM, first compound 10 µM

## CCCS(=O)(=O)Nc1ccc(F)c(C(=O)c2c[nH]c3ncc(-c4ccc(Cl)cc4)cc23)c1F + CC(Nc1ncnc2nc[nH]c12)c1cc2cccc(Cl)c2c(=O)n1-c1ccccc1
[1]
  IC50: 4.45 µM
[2]
  IC50: 3.91 µM
[3]
  IC50: 3.74 µM
[4]
  IC50: 3.49 µM
Curve of first compound, second compound 3.16 µM
  IC50: 2.53 µM
Curve of first compound, second compound 10 µM
  IC50: < 0.0316 µM
[5]
  viability, T/C: 96.6%
[6]
  viability, T/C: 86.8%
[7]
  viability, T/C: 84.3%
[8]
  viability, T/C: 83.2%
[9]
  viability, T/C: 65.3%
[10]
  viability, T/C: 15.6%
[11]
  viability, T/C: 92.4%
[12]
  viability, T/C: 90.9%
[13]
  viability, T/C: 76.3%
[14]
  viability, T/C: 82.2%
[15]
  viability, T/C: 58.1%
[16]
  viability, T/C: 13.4%
[17]
  viability, T/C: 83.2%
[18]
  viability, T/C: 89.2%
[19]
  viability, T/C: 78.3%
[20]
  viability, T/C: 73.6%
[21]
  viability, T/C: 57.2%
[22]
  viability, T/C: 14%
[23]
  viability, T/C: 61.7%
[24]
  viability, T/C: 66.1%
[25]
  viability, T/C: 69%
[26]
  viability, T/C: 68.3%
[27]
  viability, T/C: 53.6%
[28]
  viability, T/C: 11%
Second compound 3.16 µM, first compound 0.0316 µM
  viability, T/C: 53.6%
Second compound 3.16 µM, first compound 0.1 µM
  viability, T/C: 64.3%
Second compound 3.16 µM, first compound 0.316 µM
  viability, T/C: 49.3%
Second compound 3.16 µM, first compound 1 µM
  viability, T/C: 57.7%
Second compound 3.16 µM, first compound 3.16 µM
  viability, T/C: 48.4%
Second compound 3.16 µM, first compound 10 µM
  viability, T/C: 11.2%
Second compound 10 µM, first compound 0.0316 µM
  viability, T/C: 40.3%
Second compound 10 µM, first compound 0.1 µM
  viability, T/C: 39.3%
Second compound 10 µM, first compound 0.316 µM
  viability, T/C: 40.6%
Second compound 10 µM, first compound 1 µM
  viability, T/C: 42.9%
Second compound 10 µM, first compound 3.16 µM
  viability, T/C: 41.1%
Second compound 10 µM, first compound 10 µM
  viability, T/C: 8.78%

## CC(C)n1nc(-c2ccc3oc(N)nc3c2)c2c(N)ncnc21 + COc1c(OCCCN2CCOCC2)ccc2c3n(c(=NC(=O)c4cnc(N)nc4)nc12)CCN3
[29]
  IC50: 0.0342 µM
[30]
  IC50: 0.0417 µM
[1]
  IC50: 0.032 µM
[2]
  IC50: 0.0104 µM
[3]
  IC50: < 0.000316 µM
[4]
  IC50: < 0.000316 µM
Second compound 0.00316 µM, first compound 0.000316 µM
  viability, T/C: 81.1%
Second compound 0.00316 µM, first compound 0.001 µM
  viability, T/C: 87%
Second compound 0.00316 µM, first compound 0.00316 µM
  viability, T/C: 95.5%
Second compound 0.00316 µM, first compound 0.01 µM
  viability, T/C: 88.3%
[31]
  viability, T/C: 52.3%
[32]
  viability, T/C: 18.8%
Second compound 0.01 µM, first compound 0.000316 µM
  viability, T/C: 77.2%
Second compound 0.01 µM, first compound 0.001 µM
  viability, T/C: 83.5%
Second compound 0.01 µM, first compound 0.00316 µM
  viability, T/C: 87.7%
Second compound 0.01 µM, first compound 0.01 µM
  viability, T/C: 81.1%
[33]
  viability, T/C: 61.1%
[34]
  viability, T/C: 14.9%
Second compound 0.0316 µM, first compound 0.000316 µM
  viability, T/C: 75.6%
Second compound 0.0316 µM, first compound 0.001 µM
  viability, T/C: 84.4%
Second compound 0.0316 µM, first compound 0.00316 µM
  viability, T/C: 80.9%
Second compound 0.0316 µM, first compound 0.01 µM
  viability, T/C: 68%
[5]
  viability, T/C: 51.2%
[6]
  viability, T/C: 11.6%
Second compound 0.1 µM, first compound 0.000316 µM
  viability, T/C: 49.8%
Second compound 0.1 µM, first compound 0.001 µM
  viability, T/C: 63.6%
Second compound 0.1 µM, first compound 0.00316 µM
  viability, T/C: 53.7%
Second compound 0.1 µM, first compound 0.01 µM
  viability, T/C: 49.9%
[11]
  viability, T/C: 36%
[12]
  viability, T/C: 7.66%
Second compound 0.316 µM, first compound 0.000316 µM
  viability, T/C: 28.2%
Second compound 0.316 µM, first compound 0.001 µM
  viability, T/C: 25.8%
Second compound 0.316 µM, first compound 0.00316 µM
  viability, T/C: 28.1%
Second compound 0.316 µM, first compound 0.01 µM
  viability, T/C: 24.9%
[17]
  viability, T/C: 15.4%
[18]
  viability, T/C: 3.12%
Second compound 1 µM, first compound 0.000316 µM
  viability, T/C: 3.84%
Second compound 1 µM, first compound 0.001 µM
  viability, T/C: 3.57%
Second compound 1 µM, first compound 0.00316 µM
  viability, T/C: 2.98%
Second compound 1 µM, first compound 0.01 µM
  viability, T/C: 3%
[23]
  viability, T/C: 1.87%
[24]
  viability, T/C: 0.59%

## CC(Cn1ccc(-c2ccc(C#N)c(Cl)c2)n1)NC(=O)c1cc(C(C)O)[nH]n1 (stereo not drawn) + CC(Nc1ccc2c(c1)OCCn1cc(N3C(=O)OCC3C(F)F)nc1-2)C(N)=O
[29]
  IC50: > 10 µM
[30]
  IC50: > 10 µM
[1]
  IC50: > 10 µM
[2]
  IC50: > 10 µM
[3]
  IC50: > 10 µM
[4]
  IC50: > 10 µM
[31]
  viability, T/C: 104%
[32]
  viability, T/C: 84.3%
[35]
  viability, T/C: 107%
[36]
  viability, T/C: 99.4%
[37]
  viability, T/C: 101%
[38]
  viability, T/C: 88.6%
[33]
  viability, T/C: 102%
[34]
  viability, T/C: 93.8%
[39]
  viability, T/C: 79.3%
[40]
  viability, T/C: 90%
[41]
  viability, T/C: 94.6%
[42]
  viability, T/C: 77.8%
[5]
  viability, T/C: 101%
[6]
  viability, T/C: 79.7%
[7]
  viability, T/C: 92.5%
[8]
  viability, T/C: 90%
[9]
  viability, T/C: 88.4%
[10]
  viability, T/C: 72.1%
[11]
  viability, T/C: 114%
[12]
  viability, T/C: 82.2%
[13]
  viability, T/C: 80.4%
[14]
  viability, T/C: 102%
[15]
  viability, T/C: 94.8%
[16]
  viability, T/C: 65%
[17]
  viability, T/C: 88.5%
[18]
  viability, T/C: 77.7%
[19]
  viability, T/C: 96.1%
[20]
  viability, T/C: 85.1%
[21]
  viability, T/C: 69.9%
[22]
  viability, T/C: 64.5%
[23]
  viability, T/C: 93%
[24]
  viability, T/C: 72.7%
[25]
  viability, T/C: 89%
[26]
  viability, T/C: 78.8%
[27]
  viability, T/C: 66.5%
[28]
  viability, T/C: 68%

## CC1(C)CCC(CN2CCN(c3ccc(C(=O)NS(=O)(=O)c4ccc(NCC5CCOCC5)c([N+](=O)[O-])c4)c(Oc4cnc5[nH]ccc5c4)c3)CC2)=C(c2ccc(Cl)cc2)C1 + CC(Nc1ccc2c(c1)OCCn1cc(N3C(=O)OCC3C(F)F)nc1-2)C(N)=O
[29]
  IC50: 4.86 µM
[30]
  IC50: 5.03 µM
[1]
  IC50: 4.3 µM
[2]
  IC50: 4.32 µM
[3]
  IC50: 3.63 µM
[4]
  IC50: 3.48 µM
[31]
  viability, T/C: 94.2%
[32]
  viability, T/C: 99.9%
[35]
  viability, T/C: 82.1%
[36]
  viability, T/C: 91.6%
[37]
  viability, T/C: 74.4%
[38]
  viability, T/C: 8.95%
[33]
  viability, T/C: 91.8%
[34]
  viability, T/C: 108%
[39]
  viability, T/C: 90.1%
[40]
  viability, T/C: 108%
[41]
  viability, T/C: 77.5%
[42]
  viability, T/C: 9.38%
[5]
  viability, T/C: 97.6%
[6]
  viability, T/C: 89.3%
[7]
  viability, T/C: 71.6%
[8]
  viability, T/C: 94.6%
[9]
  viability, T/C: 64.6%
[10]
  viability, T/C: 9.45%
[11]
  viability, T/C: 97.9%
[12]
  viability, T/C: 95.7%
[13]
  viability, T/C: 83.4%
[14]
  viability, T/C: 83.8%
[15]
  viability, T/C: 67.2%
[16]
  viability, T/C: 10%
[17]
  viability, T/C: 89.6%
[18]
  viability, T/C: 74.7%
[19]
  viability, T/C: 96%
[20]
  viability, T/C: 76.5%
[21]
  viability, T/C: 56.2%
[22]
  viability, T/C: 8.04%
[23]
  viability, T/C: 80.6%
[24]
  viability, T/C: 79.8%
[25]
  viability, T/C: 79.6%
[26]
  viability, T/C: 90%
[27]
  viability, T/C: 53.8%
[28]
  viability, T/C: 9.1%

## Cn1nccc1Nc1nccc(-c2ccn(C(CO)c3ccc(Cl)c(F)c3)c(=O)c2)n1 (stereo not drawn)
Compound 0.0316 µM
  viability, T/C: 92.3% [middle of 4 runs]
Compound 0.1 µM
  viability, T/C: 92.9% [middle of 4 runs]
Compound 0.316 µM
  viability, T/C: 101% [middle of 4 runs]
Compound 10 µM
  viability, T/C: 81.9% [middle of 4 runs]
Curve of compound
  IC50: > 10 µM
